Molecular target: Bcl-xL (Homo sapiens)
Assay: Inhibition of Bak peptide binding to human recombinant Bcl-Xl

Ki [µM]	SMILES
134	O=C(OCCOC(=O)[C@H](Cc1ccccc1)N1C(=O)/C(=C/c2ccc(Br)cc2)SC1=S)[C@H](Cc1ccccc1)N1C(=O)/C(=C/c2ccc(Br)cc2)SC1=S
58.4	CCOC(=O)[C@H](Cc1ccccc1)N1C(=O)/C(=C/c2ccc(OCOc3ccc(/C=C4\SC(=S)N([C@@H](Cc5ccccc5)C(=O)OCC)C4=O)cc3)cc2)SC1=S
0.97	O=C(O)[C@H](Cc1ccccc1)N1C(=O)/C(=C/c2ccc(OCCOc3ccc(/C=C4\SC(=S)N([C@@H](Cc5ccccc5)C(=O)O)C4=O)cc3)cc2)SC1=S
